{"source": "patent US20120128646A1", "about": "“METHODS AND COMPOSITIONS FOR THE TREATMENT OF AUTOIMMUNE DISEASE” (priority 2009, published 2012)", "key": {"diabetogenic T cells": {"test_system": "diabetogenic T cells", "assay": "Immunization of BDC-2.5 TCR-Tg NOD mice with WE14; spleen cell IFNγ ELISA", "format": "in vivo", "conditions": "WE14 50 mg in CFA day 0, boost in IFA day 7; spleen cells day 14, WE14 100 mg or 200 mg as antigen", "protocol": "In one experiment, BDC-2.5 TCR-Tg NOD mice were immunized with WE14 ([…]) in complete Freund's adjuvant (CFA) at day 0 and boosted with WE14 in incomplete Freund's adjuvant (IFA) at day 7. Spleen cells were harvested 14 days after the initial immunization and assayed by ELISA with WE14 (100 mg or 200 mg) as antigen. […] See, FIG. 16."}, "soluble IA^g7": {"test_system": "soluble IA^g7", "assay": "Peptide binding to IA^g7: competition with biotinylated HEL peptide", "parameters": "species or system NOD mouse", "conditions": "competition with biotinylated pHEL 11 μM, pH 5.6, overnight", "text": "FIG. 15B: A series of ChgA peptides tested for their ability to compete with a biotinylated HEL peptide for binding to soluble IA^g7. pS3-positive control peptide. IE^k moth cytochrome c-negative control peptide. N=2. Y axis: Percent of IA^g7-bound biotinylated HEL peptide as compared to IE^k. X axis: Log concentration of inhibitor peptide.\nIn order to confirm the unique binding register of the WE14 peptide, a series of peptides comprising N-terminal extensions and/or C-terminal deletions of WE14 were evaluated for their ability to stimulate the BDC-2.5 T cell clone (FIG. 6a) or to bind to IA^g7. See, FIG. 15A. […] See, FIG. 15B. Further, a pS3 mimotope was used as the positive control peptide and an irrelevant peptide from moth cytochrome c, pMCC, was the negative control peptide. The data were analyzed to determine the stimulatory or binding capacity of the peptides relative to WE14. See, FIG. 15C.\nSoluble IA^g7 with covalently attached pHEL was treated with thrombin to cleave the linker attaching the peptide to the IA^g7 β chain. Kozono et al., “Production of soluble MHC class II proteins with covalently bound single peptides” Nature 369:151-154 (1994). Samples (0.5 μg) were incubated with a soluble biotinylated version of pHEL, Biotin-GGGMKRHGLDNYRGYSL (SEQ ID NO: 56) (11 μM), either alone or in the presence of various concentrations of potential competitors peptides, in 15 μL of pH 5.6 buffer overnight at room temperature. The sample was diluted to 100 μL of PBS in a well of a 96-well ELISA plate coated with an anti-IA^g7 monoclonal antibody, OX-6 (BD Pharmaceuticals). The captured IA^g7 was washed several times with PBS and the bound bio-pHEL detected with alkaline phosphatase coupled Extravadin (Sigma) and […]."}, "T cell clone BDC-10.1": {"test_system": "T cell clone BDC-10.1", "assay": "IFNγ production by T cell clone in antigen assay (ELISA)", "format": "cell-based, NOD mouse", "conditions": "for Stimulation of T cell clone BDC-10.1 (IFNγ response), result in words: peptide or preparation as antigen", "text": "(§1) The T cell clones are maintained in culture by periodic re-stimulation with irradiated NOD splenocytes and islet cells or β-membrane. To assay for antigen, resting responder T cells (i.e., for example, the cells at the end of the two-week restimulation period) are co-cultured for 24 hr with elicited peritoneal macrophages (PEC) as APC and either a test sample or control antigen. Control antigen will be in the form of islet cells or the whole-cell membrane fraction (i.e., for example, a β-membrane fraction). As described above, unlysed β-membrane is stored in aliquots at −80° C. for this purpose. Negative controls include responder cells alone and responders plus APC.\n(§2) At the end of the culture period, supernatants are collected from the cultures and IFNγ production is measured by ELISA. Wells positive for IFNγ are indicative of T cells responding to antigen; the amount of cytokine produced is calculated from a standard curve and is directly proportional to the amount of antigen present.\n(§3) Antigenicity of islet cells, cellular and biochemical fractions, peptides, or insect cells expressing IA^g7-peptide constructs, was assessed through responses of T cell clones or hybridomas made by fusing T cell clones to the TCR^− version of T cell lymphoma, BW5147. White et al., “Two better cell lines for making hybridomas expressing specific T cell receptors” J Immunol 143:1822-1825 (1989). T cell clone cultures typically contained 2×10^4 responder T cells, 2.5×10^4 NOD peritoneal exudate cells (PEC) as APC, and antigen (SEC/IEX fractions, peptides, islet cells); all assays were performed with β-Mem as a positive control. IFNγ was measured by ELISA of culture supernatants. For cultures with T cell hybridomas, antigen/MHC activation was assessed by IL-2 production measured by a bioassay using the HT-2 T cell line. Walker et al., “Antigenspecific. I region-restricted interactions in vitro between tumor cell lines and T cell hybridomas” J Immunol 128:2164-2169 (1982). Synthetic peptides were either produced in the Molecular Resource Center at National Jewish Health or obtained from CHI Scientific, Maynard, Mass."}, "T cell clone BDC-5.10.3": {"test_system": "T cell clone BDC-5.10.3", "assay": "IFNγ production by T cell clone in antigen assay (ELISA)", "format": "cell-based, NOD mouse", "conditions": "for Stimulation of T cell clone BDC-5.10.3 (IFNγ response), result in words: peptide or preparation as antigen", "text": "as §1, §2, §3"}, "T cell clone BDC-2.5": {"test_system": "T cell clone BDC-2.5", "assay": "IFNγ production by T cell clone in antigen assay (ELISA)", "format": "cell-based, NOD mouse", "conditions": "for Stimulation of T cell clone BDC-2.5 (IFNγ response), result in words: peptide or preparation as antigen", "text": "as §1, §2, §3"}, "CD4+ and CD8+ T cells": {"test_system": "CD4+ and CD8+ T cells", "assay": "Immunization of NOD mice with WE14; intracellular IFNγ of pLN and spleen T cells by flow cytometry", "format": "in vivo", "conditions": "WE14 100 mg + IFA i.p. day 0, boost day 30; pLN and spleen at seven weeks", "protocol": "In another experiment, NOD mice (3-4 wks old) were immunized intraperitoneally (i.p.) with WE14 (100 mg+IFA) at day 0 and boosted with the same dose of peptide 30 days later. Seven weeks after the initial immunization, pancreatic lymph nodes (pLN) and spleen were harvested and single cell suspensions of these organs were made. The cells were stimulated with anti-CD3 ([…]) and anti-CD28 (2 mg/ml) for 48 hr. PMA/ionomycin and Golgiplug were added for an additional 4 hr. Cells were harvested and analyzed for intracellular IFNγ production by flow cytometry. […] See, FIG. 17."}, "NOD.scid recipients": {"test_system": "NOD.scid recipients", "assay": "Adoptive co-transfer of diabetes to NOD.scid recipients with spleen cells from WE14-immunized NOD mice", "format": "in vivo", "conditions": "1×10^7 WE14 SC co-transferred i.v. with 1×10^7 diabetic NOD spleen cells", "protocol": "In another experiment, NOD mice (3-4 wks old) were immunized with WE14+IFA and 13 days later, single cell suspensions of the spleens (WE14 SC) were prepared. WE14 SC (1×10^7) were co-transferred with spleen cells obtained from a diabetic NOD mouse (1×10^7) into adult NOD.scid recipients by Intravenous (i.v.) injection. Urine glucose was monitored daily following cell transfer and hyperglycemia was confirmed by blood glucose readings."}}, "note": "Entries after “also recorded” stand apart in the source; their conditions may differ.", "data": [{"sequence": "WSRMDQLAKELTAE (listed as Mus musculus) [WE14, natural cleavage product of ChgA, aa 359-372]", "values": [{"measurement": "IFNγ response of the diabetogenic T cells after immunization", "setting": "diabetogenic T cells", "value": "considerably reduced"}, {"measurement": "IA^g7 binding, result in words", "setting": "soluble IA^g7", "value": "can bind"}, {"measurement": "Potency in activating the BDC clones, fold less potent than the pS3 mimotope", "setting": "T cell clone BDC-10.1; BDC-10.1, synthetic peptide", "value": "at least 1000 fold"}, {"measurement": "Stimulation of T cell clone BDC-10.1 (IFNγ response), result in words", "setting": "T cell clone BDC-10.1", "value": "stimulated; also recorded: considerably less potent"}, {"measurement": "Stimulation of T cell clone BDC-10.1 (IFNγ response), result in words", "setting": "T cell clone BDC-10.1; listed as WE-14", "value": "stimulated"}, {"measurement": "Potency in activating the BDC clones, fold less potent than the pS3 mimotope", "setting": "T cell clone BDC-5.10.3; BDC-5.10.3, synthetic peptide", "value": "at least 1000 fold"}, {"measurement": "Stimulation of T cell clone BDC-5.10.3 (IFNγ response), result in words", "setting": "T cell clone BDC-5.10.3", "value": "stimulated; also recorded: considerably less potent"}, {"measurement": "Stimulation of T cell clone BDC-5.10.3 (IFNγ response), result in words", "setting": "T cell clone BDC-5.10.3; listed as WE-14", "value": "stimulated"}, {"measurement": "Antigen response as percentage of maximal IFN-γ response [% Max]", "setting": "T cell clone BDC-2.5; 100 mg/ml peptide, 100 mg/ml β-membrane = 100%", "value": "~15", "unit": "%"}, {"measurement": "Potency in activating the BDC clones, fold less potent than the pS3 mimotope", "setting": "T cell clone BDC-2.5; BDC-2.5, synthetic peptide", "value": "at least 1000 fold"}, {"measurement": "Stimulation of T cell clone BDC-2.5 (IFNγ response), result in words", "setting": "T cell clone BDC-2.5", "value": "weak stimulator; also recorded: weakly stimulated; also recorded: considerably less potent; also recorded: only very weakly"}, {"measurement": "Stimulation of T cell clone BDC-2.5 (IFNγ response), result in words", "setting": "T cell clone BDC-2.5; listed as WE-14", "value": "stimulated"}, {"measurement": "Inflammatory response (intracellular IFNγ) of CD4+ and CD8+ T cells in lymphoid organs", "setting": "CD4+ and CD8+ T cells", "value": "suppress"}, {"measurement": "Onset of disease induced by diabetic NOD spleen cells", "setting": "NOD.scid recipients", "value": "considerably delayed"}]}]}
